Kd data for one molecule are collected here from paper PMC12698594, “A natural PCID2-Targeting compound suppresses hepatocellular carcinoma progression: evidence from structure-based discovery and biological evaluation” (Frontiers in Pharmacology, 2025).

This assay deals with T1, PCID2 (PCI-domain containing protein 2) (Homo sapiens, UniProt Q5JVF3).
T1 construct: amine-type direct coupling to CM5 chip; DSS1 not mentioned in the SPR test
Put plainly: SPR (Biacore, CM5 chip, […] Langmuir global fit). The class given is binding. In general terms: SPR reads the build-up and loss of mass on a sensor chip optically.

pKd: −log10 of the molar value.

In general, pKd refers to the Kd on a negative log10 scale, so that one unit is a factor of ten.

T1 sequence (Q5JVF3 2-399): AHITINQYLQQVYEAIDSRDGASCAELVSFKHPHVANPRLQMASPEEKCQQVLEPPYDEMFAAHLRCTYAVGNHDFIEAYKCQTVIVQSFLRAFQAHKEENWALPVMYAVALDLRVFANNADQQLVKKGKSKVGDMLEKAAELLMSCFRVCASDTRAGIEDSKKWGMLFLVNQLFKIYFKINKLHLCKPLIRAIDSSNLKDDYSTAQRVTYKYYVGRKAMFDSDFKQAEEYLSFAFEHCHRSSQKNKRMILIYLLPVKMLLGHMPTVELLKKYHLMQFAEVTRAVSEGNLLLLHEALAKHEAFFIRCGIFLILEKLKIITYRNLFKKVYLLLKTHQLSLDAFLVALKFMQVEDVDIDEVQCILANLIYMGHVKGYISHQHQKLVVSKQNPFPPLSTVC

The molecule `O=C(OC[C@H]1O[C@@H](OC(=O)c2cc(O)c(O)c(O)c2)[C@H](OC(=O)c2cc(O)c(O)c(O)c2)[C@@H](OC(=O)c2cc(O)c(O)c(O)c2)[C@@H]1OC(=O)c1cc(O)c(O)c(O)c1)c1cc(O)c(O)c(O)c1` [#02, 1,2,3,4,6-Penta-O-galloyl-β-D-glucose] had a negative-log Kd (pKd) of 5.28.
